# Test results published in patent US6274715A, “Tricyclic erythromycin derivatives” (priority 1997, dated 2001).
# Legend:
# Type in all cases: cell-based
# [1] = system: PSEUDOMONAS AERUGINOSA BMH10; test: In vitro antibacterial activity, MIC, BHI agar dilution; settings: P. aeruginosa BMH10, unit assumed
# [2] = system: PROVIDENCIA STUARTII CMX 640; settings: P. stuartii CMX 640; BHI agar; unit assumed
# [3] = system: STAPHYLOCOCCUS AUREUS 1775; test: In vitro antibacterial activity, MIC, BHI agar dilution; settings: S. aureus 1775, unit assumed
# [4] = system: STAPHYLOCOCCUS AUREUS CMX 642A; test: as above; settings: S. aureus CMX 642A, unit assumed
# ESCHERICHIA COLI KNK 437 = settings: E. coli KNK 437; BHI agar; unit assumed
# [5] = system: PSEUDOMONAS AERUGINOSA K799/61; test: In vitro antibacterial activity, MIC, BHI agar dilution; settings: P. aeruginosa K799/61, unit assumed
# [6] = system: STAPHYLOCOCCUS EPIDERMIDIS 3519; settings: S. epidermidis 3519; BHI agar; unit assumed
# [7] = system: STAPHYLOCOCCUS AUREUS A5177; test: In vitro antibacterial activity, MIC, BHI agar dilution; settings: S. aureus A5177, unit assumed
# ESCHERICHIA COLI JUHL = settings: E. coli JUHL; BHI agar; unit assumed
# [8] = system: MYCOBACTERIUM SMEGMATIS ATCC 114; test: In vitro antibacterial activity, MIC, BHI agar dilution; settings: M. smegmatis ATCC 114, unit assumed
# [9] = system: STAPHYLOCOCCUS AUREUS NCTC10649M; test: as above; settings: S. aureus NCTC10649M, unit assumed
# ESCHERICHIA COLI H560 = test: as above; settings: E. coli H560, unit assumed
# [10] = system: STREPTOCOCCUS PYOGENES PIU 2548; test: as above; settings: S. pyogenes PIU 2548, unit assumed
# [11] = system: STAPHYLOCOCCUS AUREUS ATCC 6538P; test: as above; settings: S. aureus ATCC 6538P, 35-37° C., 20 to 24 hours, unit assumed
# [12] = system: PSEUDOMONAS AERUGINOSA DPHD-2862; test: as above; settings: P. aeruginosa DPHD-2862, unit assumed
# PSEUDOMONAS CEPACIA 296I = test: as above; settings: P. cepacia 296I, unit assumed
# [13] = system: ENTEROBACTER AEROGENES ATCC 13048; test: as above; settings: E. aerogenes ATCC 13048, unit assumed
# ESCHERICHIA COLI DC-2 = test: as above; settings: E. coli DC-2, unit assumed
# [14] = system: KLEBSIELLA PNEUMONIAE ATCC 8045; test: as above; settings: K. pneumoniae ATCC 8045, unit assumed
# [15] = system: STREPTOCOCCUS PYOGENES 930; test: as above; settings: S. pyogenes 930, unit assumed
# [16] = system: STREPTOCOCCUS PYOGENES EES61; test: as above; settings: S. pyogenes EES61, unit assumed
# [17] = system: STAPHYLOCOCCUS AUREUS A-5278; test: as above; settings: S. aureus A-5278, unit assumed
# [18] = system: STAPHYLOCOCCUS AUREUS CMX 553; test: as above; settings: S. aureus CMX 553, unit assumed
# [19] = system: PSEUDOMONAS AERUGINOSA K799/WT; test: as above; settings: P. aeruginosa K799/WT, unit assumed
# [20] = system: STREPTOCOCCUS BOVIS A-5169; test: as above; settings: S. bovis A-5169, unit assumed
# [21] = system: PSEUDOMONAS AERUGINOSA DPHD-5263; test: as above; settings: P. aeruginosa DPHD-5263, unit assumed
# ESCHERICHIA COLI SS = test: as above; settings: E. coli SS, unit assumed
# [22] = system: PSEUDOMONAS AERUGINOSA 5007; test: as above; settings: P. aeruginosa 5007, unit assumed
# STR[…] 508 = test: as above; settings: S. agalactiae CMX 508, unit assumed
# Summary of the method: (§1)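 Agar dilution in BHI: plates inoculated with 1:100 dilutions of organisms (1:10 for Micrococcus and Streptococcus), incubated 20-24 h at 35-37° C, then inspected for the lowest inhibitory concentration against a drug-free growth control.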
# M[…] ATCC 4698 = test: as above; settings: M. luteus ATCC 4698, unit assumed
# Summary of the method: as §1
# M[…] ATCC 9341 = test: as above; settings: M. luteus ATCC 9341, unit assumed
# Summary of the method: as §1
# EN[…] ATCC 8043 = test: as above; settings: E. faecium ATCC 8043, unit assumed
# Summary of the method: as §1
# CANDIDA ALBICANS CCH 442 = test: as above; settings: C. albicans CCH 442, unit assumed
compound,measurement,setting,value
CC[C@H]1OC(=O)[C@H](C)C(=O)[C@H](C)[C@@H](O[C@@H]2O[C@H](C)C[C@H](N(C)C)[C@H]2O)[C@](C)(OC)C[C@@H](C)C2=NC3CN(CCc4ccc(N)cc4)CC3N3C(=O)O[C@@]1(C)[C@H]3[C@H]2C (stereo partly drawn) [Example 121],MIC,[1],100 µg/mL
same,MIC,[2],> 100 µg/mL
same,MIC,[3],> 100 µg/mL
same,MIC,[4],0.78 µg/mL
same,MIC,ESCHERICHIA COLI KNK 437,50 µg/mL
same,MIC,[5],0.39 µg/mL
same,MIC,[6],0.78 µg/mL
same,MIC,[7],0.78 µg/mL
same,MIC,ESCHERICHIA COLI JUHL,50 µg/mL
same,MIC,[8],6.2 µg/mL
same,MIC,[9],0.78 µg/mL
same,MIC,ESCHERICHIA COLI H560,25 µg/mL
same,MIC,[10],0.78 µg/mL
same,MIC,[11],0.78 µg/mL
same,MIC,[12],> 100 µg/mL
same,MIC,PSEUDOMONAS CEPACIA 296I,100 µg/mL
same,MIC,[13],100 µg/mL
same,MIC,ESCHERICHIA COLI DC-2,50 µg/mL
same,MIC,[14],100 µg/mL
same,MIC,[15],> 100 µg/mL
same,MIC,[16],0.02 µg/mL
same,MIC,[17],> 100 µg/mL
same,MIC,[18],0.78 µg/mL
same,MIC,[19],> 100 µg/mL
same,MIC,[20],0.01 µg/mL
same,MIC,[21],> 100 µg/mL
same,MIC,ESCHERICHIA COLI SS,0.2 µg/mL
same,MIC,[22],> 100 µg/mL
same,MIC,STR[…] 508,0.02 µg/mL
same,MIC,M[…] ATCC 4698,0.2 µg/mL
same,MIC,M[…] ATCC 9341,0.05 µg/mL
same,MIC,EN[…] ATCC 8043,0.05 µg/mL
same,MIC,CANDIDA ALBICANS CCH 442,> 100 µg/mL
CC[C@H]1OC(=O)[C@H](C)C(=O)[C@H](C)[C@@H](O[C@@H]2O[C@H](C)C[C@H](N(C)C)[C@H]2O)[C@](C)(OC)C[C@@H](C)C2=NC3CN(CCc4ccc(NC(C)=O)cc4)CC3N3C(=O)O[C@@]1(C)[C@H]3[C@H]2C (stereo partly drawn) [Example 122],MIC,[1],> 100 µg/mL
same,MIC,[2],> 100 µg/mL
same,MIC,[3],> 100 µg/mL
same,MIC,[4],0.78 µg/mL
same,MIC,ESCHERICHIA COLI KNK 437,50 µg/mL
same,MIC,[5],0.78 µg/mL
same,MIC,[6],0.78 µg/mL
same,MIC,[7],0.39 µg/mL
same,MIC,ESCHERICHIA COLI JUHL,100 µg/mL
same,MIC,[8],25 µg/mL
same,MIC,[9],0.78 µg/mL
same,MIC,ESCHERICHIA COLI H560,50 µg/mL
same,MIC,[10],6.2 µg/mL
same,MIC,[11],0.39 µg/mL
same,MIC,[12],> 100 µg/mL
same,MIC,PSEUDOMONAS CEPACIA 296I,> 100 µg/mL
same,MIC,[13],100 µg/mL
same,MIC,ESCHERICHIA COLI DC-2,100 µg/mL
same,MIC,[14],> 100 µg/mL
same,MIC,[15],100 µg/mL
same,MIC,[16],0.02 µg/mL
same,MIC,[17],> 100 µg/mL
same,MIC,[18],0.78 µg/mL
same,MIC,[19],> 100 µg/mL
same,MIC,[20],0.02 µg/mL
same,MIC,[21],> 100 µg/mL
same,MIC,ESCHERICHIA COLI SS,0.78 µg/mL
same,MIC,[22],> 100 µg/mL
same,MIC,STR[…] 508,0.1 µg/mL
same,MIC,M[…] ATCC 4698,1.56 µg/mL
same,MIC,M[…] ATCC 9341,0.05 µg/mL
same,MIC,EN[…] ATCC 8043,0.78 µg/mL
same,MIC,CANDIDA ALBICANS CCH 442,> 100 µg/mL
CC[C@H]1OC(=O)[C@H](C)C(=O)[C@H](C)[C@@H](O[C@@H]2O[C@H](C)C[C@H](N(C)C)[C@H]2O)[C@](C)(OC)C[C@@H](C)C2=NC3CN(C=O)CC3N3C(=O)O[C@@]1(C)[C@H]3[C@H]2C (stereo partly drawn) [Example 124],MIC,[1],> 100 µg/mL
same,MIC,[2],> 100 µg/mL
same,MIC,[3],> 100 µg/mL
same,MIC,[4],0.78 µg/mL
same,MIC,ESCHERICHIA COLI KNK 437,100 µg/mL
same,MIC,[5],0.78 µg/mL
same,MIC,[6],3.1 µg/mL
same,MIC,[7],1.56 µg/mL
same,MIC,ESCHERICHIA COLI JUHL,100 µg/mL
same,MIC,[8],25 µg/mL
same,MIC,[9],0.78 µg/mL
same,MIC,ESCHERICHIA COLI H560,50 µg/mL
same,MIC,[10],3.1 µg/mL
same,MIC,[11],0.78 µg/mL
same,MIC,[12],> 100 µg/mL
same,MIC,PSEUDOMONAS CEPACIA 296I,> 100 µg/mL
same,MIC,[13],> 100 µg/mL
same,MIC,ESCHERICHIA COLI DC-2,100 µg/mL
same,MIC,[14],> 100 µg/mL
same,MIC,[15],> 100 µg/mL
same,MIC,[16],0.02 µg/mL
same,MIC,[17],> 100 µg/mL
same,MIC,[18],0.78 µg/mL
same,MIC,[19],100 µg/mL
same,MIC,[20],0.05 µg/mL
same,MIC,[21],> 100 µg/mL
same,MIC,ESCHERICHIA COLI SS,0.78 µg/mL
same,MIC,[22],> 100 µg/mL
same,MIC,STR[…] 508,0.1 µg/mL
same,MIC,M[…] ATCC 4698,0.39 µg/mL
same,MIC,M[…] ATCC 9341,0.1 µg/mL
same,MIC,EN[…] ATCC 8043,0.2 µg/mL
same,MIC,CANDIDA ALBICANS CCH 442,> 100 µg/mL
CC[C@H]1OC(=O)[C@H](C)C(=O)[C@H](C)[C@@H](O[C@@H]2O[C@H](C)C[C@H](N(C)C)[C@H]2O)[C@](C)(OC)C[C@@H](C)C2=NC3CN(CC(OC)OC)CC3N3C(=O)O[C@@]1(C)[C@H]3[C@H]2C (stereo partly drawn) [Example 127],MIC,[1],> 100 µg/mL
same,MIC,[2],> 100 µg/mL
same,MIC,[3],> 100 µg/mL
same,MIC,[4],3.1 µg/mL
same,MIC,ESCHERICHIA COLI KNK 437,> 100 µg/mL
same,MIC,[5],3.1 µg/mL
same,MIC,[6],1.56 µg/mL
same,MIC,[7],1.56 µg/mL
same,MIC,ESCHERICHIA COLI JUHL,> 100 µg/mL
same,MIC,[8],25 µg/mL
same,MIC,[9],1.56 µg/mL
same,MIC,ESCHERICHIA COLI H560,> 100 µg/mL
same,MIC,[10],1.56 µg/mL
same,MIC,[11],3.1 µg/mL
same,MIC,[12],> 100 µg/mL
same,MIC,PSEUDOMONAS CEPACIA 296I,> 100 µg/mL
same,MIC,[13],> 100 µg/mL
same,MIC,ESCHERICHIA COLI DC-2,> 100 µg/mL
same,MIC,[14],> 100 µg/mL
same,MIC,[15],> 100 µg/mL
same,MIC,[16],0.1 µg/mL
same,MIC,[17],> 100 µg/mL
same,MIC,[18],1.56 µg/mL
same,MIC,[19],> 100 µg/mL
same,MIC,[20],0.1 µg/mL
same,MIC,[21],> 100 µg/mL
same,MIC,ESCHERICHIA COLI SS,1.56 µg/mL
same,MIC,[22],> 100 µg/mL
same,MIC,STR[…] 508,0.2 µg/mL
same,MIC,M[…] ATCC 4698,1.56 µg/mL
same,MIC,M[…] ATCC 9341,0.39 µg/mL
same,MIC,EN[…] ATCC 8043,0.39 µg/mL
same,MIC,CANDIDA ALBICANS CCH 442,> 100 µg/mL
